The structures appear in SMILES notation. Where a SMILES comes first, the peptide text is derived from it.

A word on the logP: it is a log measure of how a compound divides between an organic and an aqueous phase.

In turn, `CC(C)c1cccc(C(C)C)c1NC(=O)CC(=O)c1ccccc1` registered a logP of 2.87. Regarding `CC1CC2C3CCC4=CC(=O)C=CC4(C)C3(F)C(O)CC2(C)C1(O)C(=O)COC(=O)CC(C)(C)C` (stereo not drawn), the logP turned out to be 4.3.

`O=C1C=C(N2CCCC2)CN1c1ccc(Cl)cc1` showed a logP of 2.6. `CC(C)CC(NC(=O)CNC(=O)C(NC(=O)C(Cc1ccccc1)NC(=O)C(N)C(C)C)C(C)C)C(=O)O` (stereo not drawn) (H-VFVGL-OH; configuration not given here) displayed a lipophilicity (logP) of -0.97. The compound `ClCC1(C(Cl)Cl)C2CC(Cl)(Cl)C1(C(Cl)Cl)C(Cl)C2(Cl)Cl` (stereo not drawn) displayed a logP of 6.64. Turning to `CC(C)NC(=NC#N)NS(=O)(=O)c1cnccc1Nc1cccc(I)c1`, the lipophilicity (logP) was 2.51. Compound `CC(C)NCC(O)COc1ccc(NC=O)cc1` (stereo not drawn) yielded a log partition coefficient (logP) of 0.54.

Turning to `CC(=O)Nc1ccc(S(=O)(=O)Nc2nc(C)c(C)o2)cc1`, the logP turned out to be 0.46. Turning to `COc1cccc2nc(N)nc(N)c12`, the logP amounted to 1.18. In the case of `COc1ccc(-c2cn3cc(N)cnc3n2)c(OC)c1`, the logP was 1.68.

Compound `CNC(=O)c1cn2c(C)c(C)nc2c2c1CCC(c1ccccc1)O2` (stereo not drawn) had a logP of 3.6. The compound `CCCN(CCC)C1CCc2c(cccc2OC)C1` (stereo not drawn) showed a logP of 4.24. In the case of `Nc1nnnn1-c1cccc2ccccc12`, the logP came out at 1.72. In turn, `CCOCCOCCOCCCCCNC(=O)NC12CC3CC(CC(C3)C1)C2` displayed a logP of 3.6.

Consider `O=[N+]([O-])c1nccn1CC(O)C(O)CF` (stereo not drawn), for which the logP is -0.77. Compound `CCCC(=NOCC)C1=C(O)CC(c2ccccc2)(c2ccccc2)OC1=O` yielded a logP of 4.75. With `NC(Cc1c[nH]c2ccccc12)C(=O)NC(Cc1ccc(O)cc1)C(=O)O` (stereo not drawn) the figure was -1.13; with `CC(C)C(Nc1ccc([N+](=O)[O-])cc1[N+](=O)[O-])C(=O)O` (stereo not drawn), 2.88. Under `O=c1cc(CSCCO)occ1O` stands -0.69; under `CC#CC(=O)c1c(C)nc2c3c(c(C(=O)N(C)C)cn12)CCC(c1ccccc1)O3` (stereo not drawn), 3.4. With `CCOc1cccc(CNc2[nH]cnc3ncnc2-3)c1` the figure was 2.57; with `CC(=O)OC(C)(C)C1CCC2(C)CCCC(O)C2C1` (stereo not drawn), 3.62. With `CC(C)NC(=NC#N)NS(=O)(=O)c1cnccc1Nc1ccc(Cl)c(C(F)(F)F)c1`, the logP was 3.27. `OCC1OC(n2cnc3c(NCc4ccccc4)ncnc32)C(O)C1O` (stereo not drawn) gave a logP of 1.23.

The compound `Cn1c(=O)[nH]c2ncn(C)c2c1=O` came in with a logP of -0.22.

Take `COc1ccc2cc(C(C)C(=O)OCCOC(C)=O)ccc2c1` (stereo not drawn): the logP is 3.5. `CCOC(=O)Nc1ccc2cc3ccc4c(c3nc2c1)COCN4C(=O)OCC` returned a log partition coefficient (logP) of 3.12. In turn, `CSCCC(N)C(=O)NC(CC(C)C)C(=O)O` (stereo not drawn) (H-Met-Leu-OH; configuration not given here) displayed a logP of -1.84. Consider `CCCC(=NOCC)C1=C(O)CC2(CCC(C)CC2)OC1=O` (stereo not drawn), for which the logP was 4.07.

On to `CCC1(c2ccncc2)CCC(=O)NC1=O` (stereo not drawn), for which the log partition coefficient (logP) came out at 0.58. In turn, `NC(Cc1ccccc1)C(=O)NC(Cc1c[nH]c2ccccc12)C(=O)O` (stereo not drawn) showed a logP of -0.79.

In turn, `COc1ccc(C2Cc3c(cccc3[N+](=O)[O-])N(CCN(C)C)C(=O)C2OC(C)=O)cc1` (stereo not drawn) gave a logP of 3.7. For `CCOC(=O)C(=Cc1ccccc1)S(=O)(=O)c1ccc([N+](=O)[O-])cc1`, the logP came to 3.2. As for `c1cc2cc3ccc4c(c3nc2c2c1NCOC2)COCN4`, the logP is 2.17. Take `CN(C)CCOc1c(Cl)cccc1Cl`: the logP came out at 2.57.

The compound `CCc1ccc2c(c1)OCCOCCOCCOCCOCCO2` had a logP of 0.98.

In the case of `CC(=O)Nc1ccc(S(=O)(=O)Nc2cc(C)nc(C)n2)cc1`, the logP is -0.14. On to `CN(C)CCOC(=O)c1ccc(C(C)(C)C)cc1`, for which the lipophilicity (logP) was 3.94.

Consider `CC(CO)NC(=O)Cn1ccnc1[N+](=O)[O-]` (stereo not drawn), for which the logP was -1.02. `NS(=O)(=O)c1ccncn1` displayed a logP of -0.2. On to `CCOc1cc2ncnc(Nc3cc(F)cc(C(F)(F)F)c3)c2cc1OCC`, for which the logP is 5.49. As to `Cc1cc(=O)n(C)c2c1cc(C)c1occ(C)c12`, the logP was 3.3.

The compound `Cn1c([N+](=O)[O-])cnc1C=NNC(N)=S` gave a log partition coefficient (logP) of 0.65.

`Brc1cc(Br)c(-c2ccccc2)c(Br)c1` displayed a logP of 6.03.

Take `Nc1ncnc2c1ncn2C1OC(CCl)C(O)C1O` (stereo not drawn): the logP is -0.06.

Compound `CC1CC(=O)NN=C1c1ccc(-n2ccnc2)cc1` (stereo not drawn) returned a logP of 1.29. The compound `CCNc1[nH]cnc2ncnc1-2` came in with a logP of 0.92.

`C=Cn1c([N+](=O)[O-])cnc1C=Cc1ccc(C(=O)O)cc1` returned a logP of 2.68.

Compound `COc1ccc2c(c1)C(=O)N(CCO[N+](=O)[O-])CO2` gave a logP of 2.07. `Nc1ccn(C2CC(CO)C(O)C2O)c(=O)n1` (stereo not drawn) returned a logP of -2.41.

As to `c1ccc2c(c1)OCC(Cc1ncc[nH]1)O2` (stereo not drawn), the logP was found to be 1.92. Turning to `COCCCNc1[nH]cnc2ncnc1-2`, the logP was 0.75.

`Cc1c(O)c(=O)ccn1CCCOC(=O)c1ccccn1` yielded a logP of -0.18.

The compound `NC1=NCC(CN2CCC(Cc3ccccc3)CC2)O1` (stereo not drawn) registered a logP of 2.38.

In the case of `c1ccc2c(c1)Cc1ncccc1-2`, the log partition coefficient (logP) amounted to 2.59. Consider `Cc1oc2c(C)cc3c(C)cc(=O)[nH]c3c2c1C`, for which the logP worked out at 3.5. With `CCc1c(O)c(=O)ccn1CCCCO`, the logP is -0.28.

On to `CC1CC2C3CCC4=CC(=O)C=CC4(C)C3(F)C(O)CC2(C)C1(O)C(=O)COC(=O)CC1CCCCC1` (stereo not drawn), for which the logP was determined as 4.95.

`CC(C)(C)NCC(COc1nsnc1N1CCOCC1)OC(=O)C1CC1` (stereo not drawn) yielded a logP of 3.54.

For `O=CC(=C(Cl)C(=O)O)C(Cl)Cl`, the logP was 1.13.

`Cc1nccc2c1[nH]c1cc(O)ccc12` registered a logP of 2.84. The compound `CC(C)CC(N)C(=O)NC(CC(C)C)C(=O)NC(CC(C)C)C(=O)O` (stereo not drawn) (H-Leu-Leu-Leu-OH; configuration not given here) registered a logP of -0.94.

On to `COc1ccc(C2Cc3c(cccc3C(F)(F)F)N(CCN(C)C)C(=O)C2Cc2ccccc2)cc1` (stereo not drawn), for which the logP was 7.2. Under `CNc1nc(NC)nc(NC(C)C)n1` stands 1.87; under `O=c1ssc(-c2ccccc2)c1-c1ccccc1`, 4.07; under `CNC=C1c2cccc(O)c2C(=O)c2c(O)cccc21`, 3.55.

Consider `O=C(Cc1ccccc1)c1c(O)c2ccc(Cl)cc2[nH]c1=O`, for which the logP turned out to be 3.66. `COc1cc2ncnc(Nc3cccc(Cl)c3)c2cc1OC` showed a lipophilicity (logP) of 3.51. `Cc1cc2oc(=O)cc(C)c2c2occc12`: the logP stood at 2.84. `O=C(O)CCCCCON=C(c1ccccc1)c1ncccn1`: the logP turned out to be 2.25. `CC(C)C(N)C(=O)NC(Cc1ccccc1)C(=O)NC(Cc1ccc(O)cc1)C(=O)O` (stereo not drawn) yielded a logP of -1.5. The compound `O=[N+]([O-])c1ccc(-n2cccn2)cc1` displayed a logP of 2.25. The compound `CCOc1cc2ncnc(Nc3cccc(Cl)c3)c2cc1OCC` yielded a logP of 4.31. In turn, `CSc1ccc2nc(-c3ccc(N)cc3)cn2c1` showed a logP of 2.9.

For the compound `CS(=O)(=O)c1cccc2nc(N)nc(N)c12`, the logP was found to be 0.63. On to `Nc1nnnn1-c1cccc([N+](=O)[O-])c1`, for which the logP was found to be 0.67. Under `c1ccc(CCCc2ccccc2)cc1` stands 3.43; under `COc1ccc(C2Cc3ccccc3N(CCN(C)C)C(=O)C2OC(C)=O)cc1` (stereo not drawn), 3.2; under `CCCCNCc1ccc(C)cc1`, 3.49.

As to `CNC(=O)Nc1ccc(C(=O)O)cc1`, the lipophilicity (logP) came to 1.1. The compound `CCCCNC(=O)N1C(=O)N(C)CC1O` (stereo not drawn) gave a log partition coefficient (logP) of 1.38.

Regarding `CCNc1ccncc1S(=O)(=O)NC(=NC#N)NC(C)C`, the lipophilicity (logP) was -0.24. `CCC(C)C(NC(=O)CNC(=O)C(C)NC(=O)CNC(=O)C(N)Cc1ccccc1)C(=O)O` (stereo not drawn) (H-FGAGI-OH; configuration not given here): the logP is -1.87. Compound `Cc1c2occc2cc2ccc(=O)oc12` gave a logP of 2.48. Regarding `CC(C)CC(N)C(=O)NC(CC(C)C)C(=O)NC(Cc1ccc(O)cc1)C(=O)O` (stereo not drawn) (H-Leu-Leu-Tyr-OH; configuration not given here), the logP was -1.34.

As to `COC(=O)CCSc1ccc2nc(-c3ccc(N(C)C)cc3)cn2c1`, the logP is 3.9. `O=[N+]([O-])c1ccc(CSc2ncnc3c2ncn3C2OC(CO)C(O)C2O)cc1` (stereo not drawn) displayed a log partition coefficient (logP) of 0.54. The compound `CCOc1ccc(-n2nnnc2N)cc1` returned a logP of 1.32. Turning to `O=C1NC(Cc2c[nH]c3ccccc23)C(=O)NC1Cc1c[nH]c2ccccc12` (stereo not drawn), the logP worked out at 2.04. Take `CCC(C)C(NC(=O)C(N)CC(C)C)C(=O)O` (stereo not drawn) (H-Leu-Ile-OH; configuration not given here): the logP was -1.64. In the case of `COCCCNc1ncnc2c1ncn2C1OC(CO)C(O)C1O` (stereo not drawn), the logP is -0.17. `Cc1oc2cc3oc(=O)cc(C)c3cc2c1C` yielded a logP of 3.22. On to `Cc1cc(=O)oc2c1cc(C)c1occ(C)c12`, for which the logP came out at 3.23. `CC1(C(Cl)Cl)C2CC(Cl)(Cl)C1(C(Cl)Cl)CC2(Cl)Cl` (stereo not drawn) had a logP of 5.9.

In turn, `CC(C)CC(NC(=O)C(N)Cc1c[nH]c2ccccc12)C(=O)NC(CC(C)C)C(=O)NC(C(=O)O)C(C)C` (stereo not drawn) (H-WLLV-OH; configuration not given here) returned a logP of 0.23. In the case of `CCCC(=NOCC)C1=C(O)CC2(CCC(CC)CC2)OC1=O` (stereo not drawn), the logP amounted to 4.47.

For the compound `Cc1cccc2nc(N)nc(N)c12`, the logP was determined as 1.26. In turn, `OC(CNCc1ccccc1)CON=C(C1CC1)C1CC1` (stereo not drawn) yielded a logP of 2.08.

In the case of `Cc1ccc(CO)c(C=NNC(=O)c2ccncc2)c1O`, the logP is 2.16. Compound `CCN(CC)CCSC(=NO)c1nc(-c2ccccc2)no1` gave a logP of 3.05. Take `COc1ccc(C2Cc3c(C#N)cccc3N(CCN(C)C)C(=O)C2OC(C)=O)cc1` (stereo not drawn): the logP came out at 3.3. Take `Nc1nnnn1-c1ccc([N+](=O)[O-])cc1`: the logP was 0.77.

For `CC(C)(C)c1cc(O)cc(C(C)(C)C)c1`, the logP worked out at 4.64. `CC(C)SCc1cc(=O)c(O)co1` showed a log partition coefficient (logP) of 1.17. Take `Clc1cccc(CNc2[nH]cnc3ncnc2-3)c1`: the logP came out at 2.89. `O=C1CCC(=O)N1c1cccc(Cl)c1Cl`: the logP was determined as 0.9.

In turn, `CC(=NNC(=O)c1cccc(Br)c1)c1cnccn1` showed a logP of 2.9. With `CCCCC(O)C(CCCCOc1cccc2ccccc12)n1cncn1` (stereo not drawn), the logP worked out at 4.31.

The values are drawn from the OPERA property sets (Mansouri et al. 2018).
